Source: patent US6410541B2, “Compounds useful for inhibition of farnesyl protein transferase” (Schering Corporation, priority 1997, dated 2002)

How the values were obtained:
[1] = biological target: farnesyl protein transferase (UniProt Q02293+Q04631); assay: FPT IC50 (inhibition of farnesyl protein transferase, in vitro enzyme assay); format: biochemical; settings: for IC50: in vitro enzyme assay per WO 95/10516
Experimental: (§1) FPT IC50 (inhibition of farnesyl protein transferase, in vitro enzyme assay) and COS Cell IC50 (Cell-Based Assay) were determined following the assay procedures described in WO 95/10516, published Apr. 20. 1995. GGFT IC50 (inhibition of geranylgeranyl protein transferase, in vitro enzyme assay), Cell Mat Assay, and anti-tumor activity (in vivo anti-tumor studies) could be determined by the assay procedures described in WO 95/10516. The disclosure of WO 95/10516 is incorporated herein by reference thereto.
In Table 10, “nM” represents nanomolar.

[2] = system: COS Cell; assay: COS Cell IC50 (Cell-Based Assay); settings: COS cells, cell-based assay per WO 95/10516
Experimental: as §1

| IC50 [1] [nM] | Compound | further results |
| --- | --- | --- |
| 2.2 | O=C1CCC(CC(=O)N2CCC([C@H]3c4ncc(Br)cc4CCc4cc(Cl)cc(Br)c43)CC2)CC1 [Compound 13.0] | – |
| 2.6 | O=C1CCN(CC(=O)N2CCC([C@H]3c4ncc(Br)cc4CCc4cc(Cl)cc(Br)c43)CC2)CC1 [Compound 14.0] | – |
| – | COc1ccc2c(c1)CC(CC(=O)N1CCC([C@H]3c4ncc(Br)cc4CCc4cc(Cl)cc(Br)c43)CC1)C2=O (stereo partly shown) [Compound 17.0B] | FPT inhibition at 140 nM (printed in FPT IC50 column) ([1]; at 140 nM): 32% at 140 |
| 5 | O=C1CCCCC1CC(=O)N1CCC([C@H]2c3ncc(Br)cc3CCc3cc(Cl)cc(Br)c32)CC1 (stereo partly shown) [Compound 18.0] | – |
| 10.7 | O=C1CCCCC1CCC(=O)N1CCC([C@H]2c3ncc(Br)cc3CCc3cc(Cl)cc(Br)c32)CC1 (stereo partly shown) [Compound 19.0] | – |
| 7 | C[C@]1(CCC(=O)N2CCC([C@H]3c4ncc(Br)cc4CCc4cc(Cl)cc(Br)c43)CC2)CCCCC1=O [Compound 20.0] | – |
| 10.7 | O=C(C=C1CCC2(CC1)OCCO2)N1CCC([C@H]2c3ncc(Br)cc3CCc3cc(Cl)cc(Br)c32)CC1 [Compound 21.0] | – |
| 2.7 | O=C(CC1CCC(=NO)CC1)N1CCC([C@H]2c3ncc(Br)cc3CCc3cc(Cl)cc(Br)c32)CC1 (stereo partly shown) [Compound 23.0] | – |
| 4.7 | O=C(CC1CCC2(CC1)OCCO2)N1CCC([C@H]2c3ncc(Br)cc3CCc3cc(Cl)cc(Br)c32)CC1 [Compound 24.0] | – |
| 4.4 | CON=C1CCC(CC(=O)N2CCC([C@H]3c4ncc(Br)cc4CCc4cc(Cl)cc(Br)c43)CC2)CC1 (stereo partly shown) [Compound 25.0] | – |
| 6 | O=C(CN1CCC(=NO)CC1)N1CCC([C@H]2c3ncc(Br)cc3CCc3cc(Cl)cc(Br)c32)CC1 [Compound 26.0] | – |
| 6.7 | CON=C1CCN(CC(=O)N2CCC([C@H]3c4ncc(Br)cc4CCc4cc(Cl)cc(Br)c43)CC2)CC1 [Compound 27.0] | – |
| 35 | O=C(CN1CCC2(CC1)SCCS2)N1CCC([C@H]2c3ncc(Br)cc3CCc3cc(Cl)cc(Br)c32)CC1 [Compound 28.0] | – |
| 3 | NC(=O)NN=C1CCC(CC(=O)N2CCC([C@H]3c4ncc(Br)cc4CCc4cc(Cl)cc(Br)c43)CC2)CC1 (stereo partly shown) [Compound 29.0] | – |
| 4.3 | CC(=O)NN=C1CCC(CC(=O)N2CCC([C@H]3c4ncc(Br)cc4CCc4cc(Cl)cc(Br)c43)CC2)CC1 (stereo partly shown) [Compound 30.0] | – |
| 1.9 | O=C(O)CON=C1CCC(CC(=O)N2CCC([C@H]3c4ncc(Br)cc4CCc4cc(Cl)cc(Br)c43)CC2)CC1 (stereo partly shown) [Compound 31.0] | – |
| 97 | CC(C)(C)[Si](C)(C)OCCON=C1CCC(CC(=O)N2CCC([C@H]3c4ncc(Br)cc4CCc4cc(Cl)cc(Br)c43)CC2)CC1 (stereo partly shown) [Compound 32.0] | – |

| IC50 [1] [nM] | Compound | further results |
| --- | --- | --- |
| 5.1 | O=C1CCC(C(=O)N2CCC([C@H]3c4ncc(Br)cc4CCc4cc(Cl)cc(Br)c43)CC2)CC1 [Compound 33.0] | – |
| 10.7 | O=C(C1CCC2(CC1)OCCO2)N1CCC([C@H]2c3ncc(Br)cc3CCc3cc(Cl)cc(Br)c32)CC1 [Compound 34.0] | – |
| 8.2 | CON=C1CCC(C(=O)N2CCC([C@H]3c4ncc(Br)cc4CCc4cc(Cl)cc(Br)c43)CC2)CC1 (stereo partly shown) [Compound 35.0] | – |
| 67 | CC(C)(C)OC(=O)NC1CCC(C(=O)N2CCC(C3c4ncc(Br)cc4CCc4cc(Cl)cc(Br)c43)CC2)CC1 (stereo not shown) [Compound 36.0] | – |
| 14 | N[C@H]1CC[C@@H](C(=O)N2CCC([C@H]3c4ncc(Br)cc4CCc4cc(Cl)cc(Br)c43)CC2)CC1 [Compound 37.0] | – |
| 6.2 | NC(=O)NC1CCC(C(=O)N2CCC(C3c4ncc(Br)cc4CCc4cc(Cl)cc(Br)c43)CC2)CC1 (stereo not shown) [Compound 38.0] | – |
| 23 | CCOC(=O)C(=O)NC1CCC(C(=O)N2CCC(C3c4ncc(Br)cc4CCc4cc(Cl)cc(Br)c43)CC2)CC1 (stereo not shown) [Compound 39.0] | – |
| 2.9 | CS(=O)(=O)NC1CCC(C(=O)N2CCC(C3c4ncc(Br)cc4CCc4cc(Cl)cc(Br)c43)CC2)CC1 (stereo not shown) [Compound 40.0] | – |
| 150 | CC(C)(C)OC(=O)NC1CCCC(C(=O)N2CCC(C3c4ncc(Br)cc4CCc4cc(Cl)cc(Br)c43)CC2)C1 (stereo not shown) [Compound 43.0] | – |
| 13.9 | NC1CCCC(C(=O)N2CCC(C3c4ncc(Br)cc4CCc4cc(Cl)cc(Br)c43)CC2)C1 (stereo not shown) [Compound 44.0] | – |
| 17.6 | NC(=O)NC1CCCC(C(=O)N2CCC(C3c4ncc(Br)cc4CCc4cc(Cl)cc(Br)c43)CC2)C1 (stereo not shown) [Compound 45.0] | – |
| 34 | CCOC(=O)C(=O)NC1CCCC(C(=O)N2CCC(C3c4ncc(Br)cc4CCc4cc(Cl)cc(Br)c43)CC2)C1 (stereo not shown) [Compound 46.0] | – |
| 15.6 | NC(=O)C(=O)NC1CCCC(C(=O)N2CCC(C3c4ncc(Br)cc4CCc4cc(Cl)cc(Br)c43)CC2)C1 (stereo not shown) [Compound 49.1] | – |
| > 160 | O=C(C1CCC(O)CC1)N1CCC(C2c3ncc(Br)cc3CCc3cc(Cl)cc(Br)c32)CC1 (stereo not shown) [Compound 68.0] | – |
| 7.8 | CC(=O)OC1CCC(C(=O)N2CCC(C3c4ncc(Br)cc4CCc4cc(Cl)cc(Br)c43)CC2)CC1 (stereo not shown) [Compound 69.0] | IC50 [2]: 30 nM |
| 11 | O=C(C1CCC(O)CC1)N1CCC(C2c3ncc(Br)cc3CCc3cc(Cl)cc(Br)c32)CC1 (stereo not shown) [Compound 70.0] | – |
